Test results published in patent publication US11040959B2, “Diprovocims: a new and potent class of TLR agonists” (The Scripps Research Institute, priority 2016, dated 2021).
Like-named read-outs stand apart in the source and are kept apart here.

What was measured:
[1] = test system: differentiated human THP-1 cells; test: stimulated release of TNF-α from differentiated human THP-1 cells (ELISA, dose-response); assay type: cell-based
Procedure: A screening campaign was conducted with nearly 100,000 compounds [(a) Whitby et al., Acc. Chem. Res. 2012, 45:1698-1709; and (b) Boger et al., Angew. Chem. Int. Ed. 2003, 42:4138-4176], using a newly developed functional assay that measured the stimulated release of TNF-α from treated human THP-1 cells partially differentiated along the macrophage line [unpublished results of the inventors and co-workers]. […] The libraries screened in the efforts represent a unique compound collection populated by nontraditional compounds [(a) Whitby et al., Acc. Chem. Res. 2012, 45:1698-1709; and (b) Boger et al., Angew. Chem. Int. Ed. 2003, 42:4138-4176] designed to target protein-protein [(a) Shaginian et al., J. Am. Chem. Soc. 2009, 131:5564-5572; and (b) Whitby et al., J. Am. Chem. Soc. 2011, 133:10184-10194] or protein-DNA interactions [Stover et al., J. Am. Chem. Soc. 2009, 131:3342-3348] as well as the major enzyme classes [Otrubova et al., Bioorg. Med. Chem. Lett. 2014, 24:3807-3813].
Hits were confirmed in an ELISA assay for stimulated TNF-α release from human PMA differentiated THP-1 cells and this assay was used for establishing dose-response curves and measured EC50 values.

[2] = test system: mouse macrophages; test: stimulated release of TNF-α from mouse macrophages; assay type: cell-based
Text: EC50 values are derived from dose-response curves for the stimulated release of TNF-α from differentiated THP-1 cells or mouse macrophages are shown beneath each appropriate structural formula of Compounds 8-12. Half maximal effective concentration (EC50) refers to the concentration of a drug, antibody or toxicant that induces a response halfway between the baseline and maximum after a specified exposure time. It is commonly used as a measure of a drug's potency.

[3] = Homo sapiens, THP-1, running text, read-out: EC50, stimulated release of TNF-α from differentiated human THP-1 cells
[4] = Mus musculus, Macrophage, read-out: EC50, stimulated release of TNF-α from mouse macrophages
[5] = Mus musculus, Macrophage, Scheme 1, footnote b, read-out: EC50 TNF-α release from mouse macrophages
[6] = Homo sapiens, THP-1, Scheme 1, footnote a, read-out: EC50 TNF-α release from human THP-1 cells

## O=C(N[C@H]1C[C@@H]1c1ccccc1)[C@@H]1CN(C(=O)c2ccc(C(=O)N3C[C@@H](C(=O)N[C@H]4C[C@@H]4c4ccccc4)[C@H](C(=O)N[C@H]4C[C@@H]4c4ccccc4)C3)cc2)C[C@H]1C(=O)N[C@H]1C[C@@H]1c1ccccc1 (racemic) [Compound 12, trans, trans-1,1′-Terephthaloylbis-(N^3,N^4-bis-(trans-2-phenylcyclopropyl)pyrrolidine-3,4-dicarboxamide)]
[1]; [3]
  EC50: 10 nM
[1]; versus LPS or Pam3CSK4, side-by-side
  efficacy of TNF-α release compared with reference agonist: equally efficacious with LPS
[2]; [4]
  EC50: 100 nM

## O=C(NCCc1ccc(F)cc1)[C@H]1CN(C(=O)c2ccc(C(=O)N3C[C@H](C(=O)NCCc4ccc(F)cc4)[C@@H](C(=O)NCCc4ccc(F)cc4)C3)cc2)C[C@@H]1C(=O)NCCc1ccc(F)cc1 (racemic) [Compound 69, 1,1′-Terephthaloylbis(N^3,N^4-bis(4-fluoro-phenethyl)-yrrolidine-trans-3,4-dicarboxamide)]
[1]; [3]
  EC50: 100 nM

## O=C(NCCc1cccc(F)c1)[C@H]1CN(C(=O)c2ccc(C(=O)N3C[C@H](C(=O)NCCc4cccc(F)c4)[C@@H](C(=O)NCCc4cccc(F)c4)C3)cc2)C[C@@H]1C(=O)NCCc1cccc(F)c1 (racemic) [Compound 84, 1,1′-Terephthaloylbis(N^3,N^4-bis(3-fluoro-phenethyl)pyrrolidine-trans-3,4-dicarboxamide)]
[1]; Homo sapiens, THP-1, Table 5 footnote, racemates, TNF-α release from human differentiated THP-1 cells, read-out: EC50
  EC50: 1000 nM
[1]; [3]
  EC50: 1000 nM
[1]; human THP-1 cells, racemates
  fold less active (3- vs 4-fluorophenethylamide): > 10 fold

## O=C(NCCc1ccccc1)[C@@H]1CN(C(=O)c2ccc(C(=O)N3C[C@@H](C(=O)NCCc4ccccc4)[C@H](C(=O)N[C@H]4C[C@@H]4c4ccccc4)C3)cc2)C[C@H]1C(=O)NCCc1ccccc1 (relative stereo) [Compound 9]
[1]; tested up to 5 μM where stated
  activity in stimulating TNF-α release from human THP-1 cells (in words): inactive

## O=C(NCCc1ccccc1)[C@@H]1CN(C(=O)c2ccc(C(=O)N3C[C@@H](C(=O)NCCc4ccccc4)[C@H](C(=O)N[C@H]4C[C@@H]4c4ccccc4)C3)cc2)C[C@H]1C(=O)N[C@H]1C[C@@H]1c1ccccc1 (stereo in doubt) [Compound 10, trans,trans-1, 1′-Terephthaloylbis(N^3-phenethyl-N^4-(trans-2-phenylcyclopropyl)pyrrolidine-3,4-dicarboxamide)]
[1]; [3]
  EC50: 80 nM

## CCCCCCCCCCCCCCCCNC(=O)C1CCN(C(=O)c2ccc(C(=O)N3C[C@@H](C(=O)N[C@H]4C[C@@H]4c4ccccc4)[C@H](C(=O)N[C@H]4C[C@@H]4c4ccccc4)C3)cc2)C1 (stereo in doubt) [Compound 129, (3S,4S)-1-(4-((S)-3-(Hexadecylcarbamoyl)-pyrrolidine-1-carbonyl)benzoyl)—N^3,N^4-bis((1S,2R)-2-phenylcyclopropyl)pyrrolidine-3,4-dicarboxamide]
[1]; table of 125-132 (one lipid side chain, R and S), human THP-1 cells, read-out: EC50 (nM) (THP-1)
  EC50: 5 nM
[2]; table of 125-132 (one lipid side chain, R and S), mouse macrophages, read-out: EC50 (nM) (mouse)
  EC50: > 5000 nM

## O=C(N[C@H]1C[C@@H]1c1ccccc1)[C@@H]1CN(C(=O)c2ccc(C(=O)N3C[C@@H](C(=O)N[C@H]4C[C@@H]4c4ccccc4)[C@H](C(=O)N[C@H]4C[C@@H]4c4ccccc4)C3)cc2)C[C@H]1C(=O)N[C@H]1C[C@@H]1c1ccccc1 [Compound 3, (3S,3′S,4S,4′S)-1,1′-Terephthaloylbis(N^3,N^4-bis((1S,2R)-2-phenylcyclopropyl)pyrrolidine-3,4-dicarboxamide)]
[2]; Macrophage, Table 1, TNF-α release from mouse macrophages, read-out: EC50 (nM) (mouse)
  EC50: 1 nM
[2]; [5]
  EC50: 1 nM
[2]; [4]
  EC50: 1 nM

## O=C(NCCc1ccc(F)cc1)[C@@H]1CN(C(=O)c2ccc(C(=O)N3C[C@@H](C(=O)NCCc4ccc(F)cc4)[C@H](C(=O)NCCc4ccc(F)cc4)C3)cc2)C[C@H]1C(=O)NCCc1ccc(F)cc1 [Compound 4, (3S,3′S,4S,4′S)-1,1′-Terephthaloylbis(N^3,N^4-bis(4-fluorophenethyl)-pyrrolidine-3,4-dicarboxamide)]
[1]; Homo sapiens, THP-1, Table 7, TNF-α release from human THP-1 cells, read-out: EC50 (nM) (THP-1)
  EC50: 50 nM
[1]; [3]
  EC50: 50 nM
[1]; human THP-1 cells, single enantiomer versus its all racemate mixture
  fold more potent than the all racemate: 3 fold
[2]; Macrophage, Table 7, TNF-α release from mouse macrophages, read-out: EC50 (nM) (mouse)
  EC50: > 5000 nM

## O=C(N[C@H]1C[C@@H]1c1ccccc1)[C@H]1CN(C(=O)c2ccc(C(=O)N3C[C@H](C(=O)N[C@H]4C[C@@H]4c4ccccc4)[C@@H](C(=O)N[C@H]4C[C@@H]4c4ccccc4)C3)cc2)C[C@@H]1C(=O)N[C@H]1C[C@@H]1c1ccccc1 [Compound 19, (3R,3′R,4R,4′R)-1,1′-Terephthaloylbis(N^3,N^4-bis((1S,2R)-2-phenylcyclopropyl)pyrrolidine-3,4-dicarboxamide)]
[1]; [6]
  EC50: > 5000 nM
[2]; [5]
  EC50: > 5000 nM

## O=C(N[C@@H]1C[C@H]1c1ccccc1)[C@@H]1CN(C(=O)c2ccc(C(=O)N3C[C@@H](C(=O)N[C@@H]4C[C@H]4c4ccccc4)[C@H](C(=O)N[C@@H]4C[C@H]4c4ccccc4)C3)cc2)C[C@H]1C(=O)N[C@@H]1C[C@H]1c1ccccc1 [Compound 20, (3S,3′S,4S,4′S)-1,1′-Terephthaloylbis-(N^3,N^4-bis((1R,2S)-2-phenylcyclopropyl)pyrrolidine-3,4-dicarboxamide)]
[1]; [6]
  EC50: > 5000 nM
[2]; [5]
  EC50: > 5000 nM

## O=C(N[C@@H]1C[C@H]1c1ccccc1)[C@H]1CN(C(=O)c2ccc(C(=O)N3C[C@H](C(=O)N[C@@H]4C[C@H]4c4ccccc4)[C@@H](C(=O)N[C@@H]4C[C@H]4c4ccccc4)C3)cc2)C[C@@H]1C(=O)N[C@@H]1C[C@H]1c1ccccc1 [Compound 21, (3R,3′R,4R,4′R)-1,1′-Terephthaloylbis-(N^3,N^4-bis((1R,2S)-2-phenylcyclopropyl)pyrrolidine-3,4-dicarboxamide)]
[1]; [6]
  EC50: > 5000 nM
[2]; [5]
  EC50: > 5000 nM

## O=C(N[C@H]1C[C@@H]1c1ccccc1)[C@H]1CCN(C(=O)c2ccc(C(=O)N3C[C@@H](C(=O)N[C@H]4C[C@@H]4c4ccccc4)[C@H](C(=O)N[C@H]4C[C@@H]4c4ccccc4)C3)cc2)C1 [Compound 29, (3S,4S)—N^3,N^4-Bis((1S,2R)-2-phenyl-cyclopropyl)-1-(4-((S)-3-(((1S,2R)-2-phenyl-cyclopropyl)-carbamoyl)-pyrrolidine-1-carbonyl)-benzoyl)pyrrolidine-3,4-dicarboxamide]
[1]; [3]
  EC50: 200 nM
[1]; human THP-1 cells
  fold less active/potent than diprovocim-1 (3): 2000 fold

## O=C(CCN(CCC(=O)N[C@H]1C[C@@H]1c1ccccc1)C(=O)c1ccc(C(=O)N(CCC(=O)N[C@H]2C[C@@H]2c2ccccc2)CCC(=O)N[C@H]2C[C@@H]2c2ccccc2)cc1)N[C@H]1C[C@@H]1c1ccccc1 [Compound 34, N^1,N^1,N^4,N^4-Tetrakis(3-oxo-3-(((1S,2R)-2-phenyl-cyclopropyl)amino)propyl)terephthalamide]
[2]; tested up to 5 μM where stated
  activity in stimulating TNF-α release from mouse macrophages (in words): inactive

## O=C(NCCc1ccc(F)cc1)[C@H]1CN(C(=O)c2ccc(C(=O)N3C[C@H](C(=O)NCCc4ccc(F)cc4)[C@@H](C(=O)NCCc4ccc(F)cc4)C3)cc2)C[C@@H]1C(=O)NCCc1ccc(F)cc1 [Compound 98, (3R,3′R,4R,4′R)-1,1′-Terephthaloyl-bis(N^3,N^4-bis-(4-fluorophenethyl)pyrrolidine-3,4-dicarboxamide)]
[1]; Homo sapiens, THP-1, running text b169, read-out: EC50, stimulated release of TNF-α from human THP-1 cells
  EC50: > 5000 nM
[1]; human THP-1 cells
  fold less potent than the all S enantiomer 4: > 100 fold

## O=C(NCCc1ccc(F)cc1)[C@H]1CN(C(=O)c2ccc(C(=O)N3C[C@@H](C(=O)NCCc4ccc(F)cc4)[C@H](C(=O)NCCc4ccc(F)cc4)C3)cc2)C[C@@H]1C(=O)NCCc1ccc(F)cc1 [Compound 99, (3S,4S)-1-(4-((3R,4R)-3,4-Bis((4-fluorophen-ethyl)carbamoyl)pyrrolidine-1-carbonyl)benzoyl)—N^3,N^4-bis(4-fluorophenethyl)pyrrolidine-3,4-dicarboxamide]
[1]; [3]
  EC50: 70 nM
